Results taken from patent publication US20220232831A1, “NOVEL NON-CODING HETEROCYCLIC AMINO ACIDS (NCHAA) AND THEIR USE AS HERBICIDES” (Fortephest Ltd., priority 2019, published 2022).

Legend:
[1] = system: Romaine lettuce (Lactuca sativa L.) plants; assay: Post-emergency herbicidal activity on Romaine lettuce plants; type: in vivo; settings: Romaine lettuce at stage 2 to 3 leaves; compound in 0.1% Silwet, up to 0.5%; visual evaluation vs control plants
Description: The tests were performed on Romaine lettuce (Lactuca sativa L.) plants at the stage 2 to 3 leaves. The plants were grown on 300 well trays packed with soil, well dimensions 2×2×5 cm. Each compound was dissolved in 0.1% water solution of agronomically acceptable surfactant Silwet to final concentrations ranging from 0.0% (Control) to 0.5%. Two weeks after the treatment the herbicidal effects of the respective test material were visually evaluated by a comparison with the control plants. In addition, the aboveground part of the plant was neatly cut and weighed (wet weight). Each test was performed on 20 to 40 plants. The degree of growth inhibition and damage was evaluated according to the parameters in Table 2. Plant development at 7, 14, and 21 DAA (days after application) were evaluated on a scale of 0 to 100, in which score 0 represents dead plants and score 100 represents healthy plants according to plant vigor, height, and leaf color. Each test included 20 to 40 plants.

[2] = system: Seeds of Lettuce R. (Super-Jericho); assay: Filter paper bioassay with lettuce seeds (germination and early plant development); type: in vivo; settings: lettuce seeds on filter paper; 1, 0.1, 0.01, 0.001 mM; radicle and shoots assessed after 6 days
Description: Seeds of Lettuce R. (Super-Jericho, non-sterilized) were obtained from Ben Shahar Moshe Ltd., 99% purity.
Filter Paper Bioassays with Lettuce Seeds:
The protocol is following Bertin et al. 2009 and Movellan et al. 2014 with specified modifications as described below.
Seeds were placed on Whatman no. 1 filter paper (Whatman, Middlesex, U.K.) in Petri dishes (10 seeds per plate) supplemented with 2.0 ml of water (Control) or with a solution comprising 1 mM, 0.1 mM, 0.01 mM and 0.001 mM of test material. Petri dishes with seeds were placed in a tray at an angle of 45°. The trays were kept in dark for 48 hours and then transferred to the growth chamber (22° C., 0.045 mmol×m−2×s−1 photosynthetic photon flux density; 6/18 dark/light cycle) for additional 4 days. Each experiment was performed at least in two repeats. The development of radicle and shoots of experimental and control plants were visually assessed 6 days after the beginning of the test to determine Minimal Effective Concentration (MEC) of test material. In the context of the invention, MEC is defined as the lowest concentration level of a test material that caused deviation (absence of germination or malformation of radicle and shoots) from the plant's development in the Control group.

| SMILES | post-emergency herbicidal activity (Activity Index: plant's development vs Control) [1] | Minimal Effective Concentration (MEC) as activity score, seeds germination & early plants development [2] |
| --- | --- | --- |
| NC(CC1CCSC1)C(=O)O (stereo not shown) [Code 562] | Weak (More than 75) | Weak (More than 1 mM) |
| NC(CP(=O)(O)O)c1ccsc1 (stereo not shown) [Code 563] | Weak (More than 75) | Weak (More than 1 mM) |
| CC1=CC(CC(N)C(=O)O)=C(C)S1(=O)=O (stereo not shown) [Code 564] | Weak (More than 75) | Weak (More than 1 mM) |
| O=C1C=C(CC(NP(=O)(O)O)C(=O)O)C(=O)S1 (stereo not shown) [Code 565] | Weak (More than 75) | Strong (0.1 mM) |
| NC(Cc1cscc1C(F)(F)F)C(=O)O (stereo not shown) [Code 566] | Maximal (Less than 15) | Strong (0.1 mM) |
| CCOC(=O)C(Cc1nc(Cl)sc1Cl)NC(C)=O (stereo not shown) [Code 567] | Maximal (Less than 15) | Weak (More than 1 mM) |
| CCOC(=O)C(N)Cc1cc(Cl)sc1Cl (stereo not shown) [Code 569] | Maximal (Less than 15) | Strong (0.1 mM) |
| COCCOCCOC(=O)C(N)Cc1ccsc1 (stereo not shown) [Code 570] | Very Strong (From 15 to 25) | Maximal (0.01 mM and less) |
| CCOC(=O)C(Cc1ccsc1)NC(C)=O (stereo not shown) [Code 571] | Very Strong (From 15 to 25) | Strong (0.1 mM) |
| CCOC(=O)C(Cc1cc(Cl)sc1Cl)NC(C)=O (stereo not shown) [Code 573] | Maximal (Less than 15) | Strong (0.1 mM) |
| CCOC(=O)C(Cc1cc(Cl)oc1Cl)NC(C)=O (stereo not shown) [Code 574] | Moderate (From 50 to 75) | Strong (0.1 mM) |
| CCCOC(=O)C(N)Cc1cc(Cl)oc1Cl (stereo not shown) [Code 575] | Moderate (From 50 to 75) | Strong (0.1 mM) |
| CCOC(=O)C(Cc1csc[n+]1C)NC(C)=O.[Cl-] (stereo not shown) [Code 576] | Maximal (Less than 15) | Moderate (1 mM) |
| CCOCCOCCOC(=O)C(Cc1cc(Cl)sc1Cl)NC(C)=O (stereo not shown) [Code 577] | Strong (From 25 to 50) | Moderate (1 mM) |
| CCOC(=O)C(N)CNS(=O)(=O)c1cc(Br)sc1Br (stereo not shown) [Code 580] | Very Strong (From 15 to 25) | Strong (0.1 mM) |
| CCCCOC(=O)C(Cc1nsc(Cl)n1)NC(C)=O (stereo not shown) [Code 595] | Strong (From 25 to 50) | Strong (0.1 mM) |
| NC(Cc1ccnnc1)C(=O)O (stereo not shown) [Code 601] | Weak (More than 75) | Weak (More than 1 mM) |
